Assay results: US20070269503A1, “Combinations of HMG CoA reductase inhibitors and negatively charged phospholipids and uses thereof” (priority 2006, published 2007)
Where two headings read alike, the source gives them in different places.

Columns and labels:
[1] = test system: HepG2 cells; conditions: cited from earlier work
[2] = normocholesterolemic male Sprague-Dawley rats; 5.5% by weight of rat chow, approximately 4 g/Kg body weight; cited from earlier work
[3] = Oral PI, plasma HDL cholesterol and apoA-I; format: in vivo; conditions: conventional formulations, about 5.6 g/day
Source text: The efficacy of orally administered phosphatidyl-inositol(PI) for raising plasma HDL cholesterol and apoA-I levels can be improved considerably (e.g. 2- to 8-fold) by combining PI with an intestinal absorption enhancer (IAE) (U.S. patent application Ser. No. 60/684212, herein incorporated by reference).

[4] = oral PI combined with an intestinal absorption enhancer (IAE); cited from earlier work

Compound: CC(C)c1c(C(=O)Nc2ccccc2)c(-c2ccccc2)c(-c2ccc(F)cc2)n1CC[C@@H](O)C[C@@H](O)CC(=O)O [atorvastatin]
- inhibition of cholesterol synthesis ([1]; concentrations between 0.01 to 10 μM): 45-65%

Compound: Phosphatidic acid [PA]
- decrease in plasma triglycerides [2]: about 40%
- increase in HDL cholesterol [2]: about 2 fold

Compound: phosphatidylinositol [PI]
- increase in apoA-I [3]: ~10%
- increase in plasma HDL cholesterol [3]: ~20%
- improvement of efficacy for raising plasma HDL cholesterol and apoA-I levels [4]: 2- to 8 fold
- inhibition of cholesterol synthesis ([1]; 11.7 μM): 50%
